Measured values as given in US20140057881A1, “Composition for the Treatment of Skin Conditions” (priority 2010, published 2014).
Counter-ions that a name gives are not always drawn.

Assays:
Type in all cases: in vivo, human
Conditions in all cases: patient history before treatment with Example 1
[1] = Case 8: topical treatment of a child
[2] = Case 1: topical treatment of a person
Description: A diagnosis of periorbital dermatitis with lichenification was made and treatment using the formulation of Example 1 commenced.

[3] = Case 7: topical treatment of a person
Description: A person with several year history of an itchy rash on the dorsum of their right foot presented (see FIG. 7A). They had previously tried many creams including various antifungal treatments, antibiotics and steroids, Particularly, they had tried Kenacomb™ (Triamcinolone acetonide, nystatin, gramicidin, neomycin); Mometasone Furoate 0.1% (Elocon™); Terbinafine Hydrochloride 1.0% (Lamisil™); Clotrimazole (sold under the trade name Canestan™) and Mupirocin (2% w/w) (sold under the trade name Bactroban™). […] There were areas of broken skin with scattered scab formation.
A diagnosis of chronic dermatitis with lichenification was made and treatment commenced with the composition of Example 1.
In less than one week the rash had disappeared (FIG. 7B).

Row | Structure (SMILES) | outcome of previously tried products [1] | outcome of previously used treatments [2] | outcome of previously tried treatments [3]
1 | CN(C/C=C/C#CC(C)(C)C)Cc1cccc2ccccc12 [Terbinafine Hydrochloride 1.0%, Terbinafine Hydrochloride] | no permanent improvement | no long term improvement | None of the treatments gave them any long term results
2 | Clc1ccccc1C(c1ccccc1)(c1ccccc1)n1ccnc1 [Clotrimazole] | no permanent improvement | – | None of the treatments gave them any long term results
3 | CCC(=O)OCC(=O)[C@@]1(OC(=O)CC)[C@@H](C)C[C@H]2[C@@H]3CCC4=CC(=O)C=C[C@]4(C)[C@@]3(F)[C@@H](O)C[C@@]21C [Betamethasone dipropionate 0.05%, Betamethasone dipropionate] | no permanent improvement | – | –
4 | C/C(=C\C(=O)OCCCCCCCCC(=O)O)C[C@@H]1OC[C@H](C[C@@H]2O[C@H]2[C@@H](C)[C@H](C)O)[C@@H](O)[C@H]1O [Mupirocin (2% w/w), Mupirocin] | – | – | None of the treatments gave them any long term results
5 | C[C@@H]1C[C@H]2[C@@H]3CCC4=CC(=O)C=C[C@]4(C)[C@@]3(Cl)[C@@H](O)C[C@]2(C)[C@@]1(OC(=O)c1ccco1)C(=O)CCl [Mometasone Furoate 0.1%, Mometasone Furoate] | – | no long term improvement | None of the treatments gave them any long term results
6 | CC(=O)OCC(=O)[C@@]1(O)CC[C@H]2[C@@H]3CCC4=CC(=O)CC[C@]4(C)[C@H]3[C@@H](O)C[C@@]21C [Hydrocosrtisone acetate 1%, Hydrocosrtisone acetate] | no permanent improvement | no long term improvement | –
7 | CCC(=O)O[C@]1(C(=O)COC(C)=O)CC[C@H]2[C@@H]3C[C@H](C)C4=CC(=O)C=C[C@]4(C)[C@H]3[C@@H](O)C[C@@]21C [Methylprednisolone aceponate] | no permanent improvement | – | –
